Measurements from ChEMBL document CHEMBL3784917, “Recent Progress in Histone Demethylase Inhibitors” (J Med Chem, 2016).

Assays:
[1] = biological target: T1, Lysine-specific demethylase 5A (Homo sapiens, UniProt P29375); experiment: biochemical
[2] = biological target: T2, Lysine-specific demethylase 4C (Homo sapiens, UniProt Q9H3R0); experiment: biochemical
T2 sequence (Q9H3R0 whole entry): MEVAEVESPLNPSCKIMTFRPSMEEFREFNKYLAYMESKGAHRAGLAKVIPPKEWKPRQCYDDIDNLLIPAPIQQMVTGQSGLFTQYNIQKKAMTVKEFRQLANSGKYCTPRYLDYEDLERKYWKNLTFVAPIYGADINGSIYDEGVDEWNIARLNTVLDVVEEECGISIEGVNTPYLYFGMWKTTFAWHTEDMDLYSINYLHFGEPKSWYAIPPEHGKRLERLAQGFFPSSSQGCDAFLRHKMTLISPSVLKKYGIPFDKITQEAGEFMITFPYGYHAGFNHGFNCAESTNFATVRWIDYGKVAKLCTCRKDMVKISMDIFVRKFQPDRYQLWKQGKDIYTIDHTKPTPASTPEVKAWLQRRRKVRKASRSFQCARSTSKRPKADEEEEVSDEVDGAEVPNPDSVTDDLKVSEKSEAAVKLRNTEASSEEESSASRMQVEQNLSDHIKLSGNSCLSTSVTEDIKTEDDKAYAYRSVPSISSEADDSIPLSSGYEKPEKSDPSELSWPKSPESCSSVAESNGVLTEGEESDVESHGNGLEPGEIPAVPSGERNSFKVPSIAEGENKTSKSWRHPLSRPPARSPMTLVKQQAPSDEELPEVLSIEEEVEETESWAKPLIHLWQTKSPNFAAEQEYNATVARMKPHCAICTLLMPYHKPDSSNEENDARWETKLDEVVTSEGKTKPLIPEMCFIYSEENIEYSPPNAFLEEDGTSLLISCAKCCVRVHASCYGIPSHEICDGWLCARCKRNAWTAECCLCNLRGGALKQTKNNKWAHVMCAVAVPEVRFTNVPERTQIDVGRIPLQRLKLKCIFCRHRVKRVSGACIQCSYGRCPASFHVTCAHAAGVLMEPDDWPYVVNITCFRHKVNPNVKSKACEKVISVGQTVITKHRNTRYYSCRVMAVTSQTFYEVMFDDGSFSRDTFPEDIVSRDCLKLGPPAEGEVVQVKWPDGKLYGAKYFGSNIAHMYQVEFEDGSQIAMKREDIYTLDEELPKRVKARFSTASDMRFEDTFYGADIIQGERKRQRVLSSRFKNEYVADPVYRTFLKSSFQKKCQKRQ

[3] = biological target: T3, Lysine-specific demethylase 5B (Homo sapiens, UniProt Q9UGL1); experiment: biochemical
T3 sequence (Q9UGL1 whole entry): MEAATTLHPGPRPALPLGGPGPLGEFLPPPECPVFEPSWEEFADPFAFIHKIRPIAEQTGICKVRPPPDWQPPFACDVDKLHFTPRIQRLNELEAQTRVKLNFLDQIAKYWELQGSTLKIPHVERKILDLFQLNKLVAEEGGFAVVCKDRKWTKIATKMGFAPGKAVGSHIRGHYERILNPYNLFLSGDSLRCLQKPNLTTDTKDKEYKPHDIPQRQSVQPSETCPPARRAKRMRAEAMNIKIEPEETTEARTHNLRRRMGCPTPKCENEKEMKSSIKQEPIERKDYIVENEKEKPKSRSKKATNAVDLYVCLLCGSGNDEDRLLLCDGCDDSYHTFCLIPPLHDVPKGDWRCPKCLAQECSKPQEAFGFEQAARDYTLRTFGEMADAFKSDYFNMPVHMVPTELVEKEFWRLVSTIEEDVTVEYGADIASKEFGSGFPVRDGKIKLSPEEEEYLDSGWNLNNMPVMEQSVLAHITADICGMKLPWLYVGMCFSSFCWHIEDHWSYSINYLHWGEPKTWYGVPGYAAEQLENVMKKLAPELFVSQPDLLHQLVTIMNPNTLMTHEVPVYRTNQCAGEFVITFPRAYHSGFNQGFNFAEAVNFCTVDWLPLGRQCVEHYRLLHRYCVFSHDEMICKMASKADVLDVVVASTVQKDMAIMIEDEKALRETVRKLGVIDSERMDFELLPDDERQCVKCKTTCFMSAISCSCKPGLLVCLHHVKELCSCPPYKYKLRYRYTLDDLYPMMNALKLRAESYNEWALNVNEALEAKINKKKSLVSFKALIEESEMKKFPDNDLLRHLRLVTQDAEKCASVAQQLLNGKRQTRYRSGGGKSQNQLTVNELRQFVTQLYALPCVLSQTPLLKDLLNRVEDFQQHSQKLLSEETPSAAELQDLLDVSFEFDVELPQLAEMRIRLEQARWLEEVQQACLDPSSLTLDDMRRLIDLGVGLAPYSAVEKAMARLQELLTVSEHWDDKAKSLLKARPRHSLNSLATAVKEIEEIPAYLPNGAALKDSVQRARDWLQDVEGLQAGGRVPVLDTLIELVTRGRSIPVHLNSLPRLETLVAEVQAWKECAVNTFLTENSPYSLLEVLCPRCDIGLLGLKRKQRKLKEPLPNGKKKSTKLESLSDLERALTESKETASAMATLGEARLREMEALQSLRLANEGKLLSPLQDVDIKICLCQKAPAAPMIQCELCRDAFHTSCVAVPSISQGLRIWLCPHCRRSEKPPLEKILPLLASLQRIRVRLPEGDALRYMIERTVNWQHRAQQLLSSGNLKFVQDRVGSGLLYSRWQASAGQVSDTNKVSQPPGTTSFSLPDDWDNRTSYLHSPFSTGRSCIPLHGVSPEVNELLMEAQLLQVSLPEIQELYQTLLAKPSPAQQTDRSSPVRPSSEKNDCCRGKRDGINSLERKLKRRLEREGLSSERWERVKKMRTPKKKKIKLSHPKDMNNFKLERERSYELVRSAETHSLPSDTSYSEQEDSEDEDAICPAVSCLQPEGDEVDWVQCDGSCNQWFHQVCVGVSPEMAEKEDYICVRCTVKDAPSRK

[4] = biological target: T3, Lysine-specific demethylase 5B
[5] = biological target: T1, Lysine-specific demethylase 5A
[6] = biological target: T4, Lysine-specific demethylase 2B (Homo sapiens, UniProt Q8NHM5); experiment: biochemical
T4 sequence (Q8NHM5 whole entry): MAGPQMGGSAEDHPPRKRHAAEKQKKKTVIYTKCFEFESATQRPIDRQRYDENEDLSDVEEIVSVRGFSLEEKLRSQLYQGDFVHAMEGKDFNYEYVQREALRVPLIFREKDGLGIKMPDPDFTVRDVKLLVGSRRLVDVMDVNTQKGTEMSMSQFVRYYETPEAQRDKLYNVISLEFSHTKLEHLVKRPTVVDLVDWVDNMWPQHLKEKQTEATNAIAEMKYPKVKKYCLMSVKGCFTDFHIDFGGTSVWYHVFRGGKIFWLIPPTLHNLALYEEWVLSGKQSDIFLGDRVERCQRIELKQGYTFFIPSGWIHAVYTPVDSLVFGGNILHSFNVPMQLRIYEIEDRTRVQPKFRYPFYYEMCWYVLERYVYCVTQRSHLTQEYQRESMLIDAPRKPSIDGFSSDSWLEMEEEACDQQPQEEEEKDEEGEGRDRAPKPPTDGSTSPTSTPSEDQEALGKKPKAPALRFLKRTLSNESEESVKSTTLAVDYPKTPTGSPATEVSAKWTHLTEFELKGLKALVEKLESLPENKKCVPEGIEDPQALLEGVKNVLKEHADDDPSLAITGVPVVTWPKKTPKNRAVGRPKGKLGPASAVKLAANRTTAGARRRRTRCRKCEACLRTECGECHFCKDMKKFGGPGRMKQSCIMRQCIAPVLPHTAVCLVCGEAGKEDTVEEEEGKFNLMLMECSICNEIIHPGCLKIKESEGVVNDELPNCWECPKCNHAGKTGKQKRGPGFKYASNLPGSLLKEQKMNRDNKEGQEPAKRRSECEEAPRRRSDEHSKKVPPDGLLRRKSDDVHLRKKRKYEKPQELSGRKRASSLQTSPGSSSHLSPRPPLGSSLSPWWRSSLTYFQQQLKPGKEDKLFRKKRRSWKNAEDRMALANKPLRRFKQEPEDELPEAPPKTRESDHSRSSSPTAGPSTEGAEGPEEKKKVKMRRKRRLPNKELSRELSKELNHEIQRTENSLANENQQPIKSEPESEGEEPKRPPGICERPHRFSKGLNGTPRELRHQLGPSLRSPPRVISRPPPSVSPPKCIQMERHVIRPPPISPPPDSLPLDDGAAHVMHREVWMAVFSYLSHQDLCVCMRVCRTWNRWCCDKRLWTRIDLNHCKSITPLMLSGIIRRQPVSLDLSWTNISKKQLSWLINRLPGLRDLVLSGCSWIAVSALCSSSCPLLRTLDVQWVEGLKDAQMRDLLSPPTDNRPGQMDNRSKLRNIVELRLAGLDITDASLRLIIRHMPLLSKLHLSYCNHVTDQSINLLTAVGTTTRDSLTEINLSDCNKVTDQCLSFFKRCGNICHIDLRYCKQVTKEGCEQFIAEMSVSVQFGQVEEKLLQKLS

cells = conditions: Homo sapiens, KYSE-150, 168 h
[7] = biological target: Lysine-specific histone demethylase 1A (Homo sapiens, UniProt O60341)
[8] = biological target: T5, Lysine-specific demethylase 4A (Homo sapiens, UniProt O75164)
T5 sequence (O75164 whole entry): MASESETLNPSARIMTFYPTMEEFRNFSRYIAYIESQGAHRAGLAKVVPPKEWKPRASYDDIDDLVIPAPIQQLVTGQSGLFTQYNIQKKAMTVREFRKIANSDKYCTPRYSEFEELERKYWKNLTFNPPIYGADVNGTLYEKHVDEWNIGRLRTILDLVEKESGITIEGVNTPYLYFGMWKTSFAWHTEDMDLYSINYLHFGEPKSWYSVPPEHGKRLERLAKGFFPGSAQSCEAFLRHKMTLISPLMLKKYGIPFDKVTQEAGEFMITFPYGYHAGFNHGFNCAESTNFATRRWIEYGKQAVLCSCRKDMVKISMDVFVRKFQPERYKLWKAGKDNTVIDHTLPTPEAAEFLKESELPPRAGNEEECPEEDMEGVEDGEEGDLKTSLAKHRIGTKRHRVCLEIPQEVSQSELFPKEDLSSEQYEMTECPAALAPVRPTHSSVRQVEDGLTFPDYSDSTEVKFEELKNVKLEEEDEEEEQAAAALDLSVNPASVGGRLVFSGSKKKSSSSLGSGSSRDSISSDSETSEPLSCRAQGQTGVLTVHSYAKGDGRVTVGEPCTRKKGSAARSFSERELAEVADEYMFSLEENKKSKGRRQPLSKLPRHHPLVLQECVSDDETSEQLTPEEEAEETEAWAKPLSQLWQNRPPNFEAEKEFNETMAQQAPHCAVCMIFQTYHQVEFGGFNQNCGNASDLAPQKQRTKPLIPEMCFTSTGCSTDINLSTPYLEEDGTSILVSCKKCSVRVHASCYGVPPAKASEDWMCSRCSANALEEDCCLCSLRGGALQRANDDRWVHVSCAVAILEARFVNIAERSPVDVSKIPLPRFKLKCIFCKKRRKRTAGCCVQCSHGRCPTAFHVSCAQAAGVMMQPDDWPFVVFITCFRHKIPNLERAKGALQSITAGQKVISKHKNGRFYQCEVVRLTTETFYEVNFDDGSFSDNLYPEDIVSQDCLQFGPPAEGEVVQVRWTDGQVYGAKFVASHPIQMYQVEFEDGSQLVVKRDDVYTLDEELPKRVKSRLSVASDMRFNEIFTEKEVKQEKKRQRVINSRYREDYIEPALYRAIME

[9] = biological target: T3, Lysine-specific demethylase 5B; remark: listed apart in the source
[10] = biological target: Lysine-specific demethylase 6A (Homo sapiens, UniProt O15550)
Sequence of Lysine-specific demethylase 6A (O15550 whole entry): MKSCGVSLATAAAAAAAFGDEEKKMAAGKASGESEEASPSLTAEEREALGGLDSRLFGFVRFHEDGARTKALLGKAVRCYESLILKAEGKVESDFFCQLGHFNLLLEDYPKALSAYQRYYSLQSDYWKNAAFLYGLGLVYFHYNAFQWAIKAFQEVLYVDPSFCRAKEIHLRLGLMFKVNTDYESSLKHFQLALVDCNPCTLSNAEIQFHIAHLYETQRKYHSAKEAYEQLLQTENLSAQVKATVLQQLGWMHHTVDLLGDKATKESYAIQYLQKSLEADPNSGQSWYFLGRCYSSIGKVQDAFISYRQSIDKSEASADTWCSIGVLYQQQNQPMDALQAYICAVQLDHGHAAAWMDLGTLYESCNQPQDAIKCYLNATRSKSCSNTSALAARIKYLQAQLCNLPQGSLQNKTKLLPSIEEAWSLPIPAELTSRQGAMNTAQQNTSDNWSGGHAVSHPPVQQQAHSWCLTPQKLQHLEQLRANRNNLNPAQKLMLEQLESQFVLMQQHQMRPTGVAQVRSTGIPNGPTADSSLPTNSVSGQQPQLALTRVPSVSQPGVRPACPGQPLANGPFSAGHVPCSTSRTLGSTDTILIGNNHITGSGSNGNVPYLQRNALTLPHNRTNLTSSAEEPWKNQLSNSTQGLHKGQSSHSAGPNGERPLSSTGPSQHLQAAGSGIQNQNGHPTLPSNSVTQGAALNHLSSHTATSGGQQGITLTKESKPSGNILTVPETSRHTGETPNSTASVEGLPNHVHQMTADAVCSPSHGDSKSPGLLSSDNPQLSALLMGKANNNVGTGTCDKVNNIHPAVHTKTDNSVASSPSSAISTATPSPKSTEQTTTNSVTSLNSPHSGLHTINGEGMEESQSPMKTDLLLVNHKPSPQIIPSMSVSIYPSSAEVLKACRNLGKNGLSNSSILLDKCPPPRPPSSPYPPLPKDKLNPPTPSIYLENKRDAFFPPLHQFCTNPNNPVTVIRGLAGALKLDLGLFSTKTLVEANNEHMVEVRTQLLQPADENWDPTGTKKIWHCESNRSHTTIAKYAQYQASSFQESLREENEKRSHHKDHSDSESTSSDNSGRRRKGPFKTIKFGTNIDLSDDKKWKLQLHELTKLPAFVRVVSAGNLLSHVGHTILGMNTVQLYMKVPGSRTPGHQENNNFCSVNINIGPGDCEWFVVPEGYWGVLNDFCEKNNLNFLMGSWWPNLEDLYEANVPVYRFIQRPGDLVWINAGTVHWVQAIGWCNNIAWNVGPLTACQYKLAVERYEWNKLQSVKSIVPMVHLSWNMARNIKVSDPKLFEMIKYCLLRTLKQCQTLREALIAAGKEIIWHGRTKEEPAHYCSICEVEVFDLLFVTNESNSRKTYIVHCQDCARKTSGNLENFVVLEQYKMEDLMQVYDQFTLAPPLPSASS

[11] = biological target: T2, Lysine-specific demethylase 4C
[12] = biological target: T4, Lysine-specific demethylase 2B; experiment: biochemical; remark: listed apart in the source

T1 sequence (P29375 whole entry): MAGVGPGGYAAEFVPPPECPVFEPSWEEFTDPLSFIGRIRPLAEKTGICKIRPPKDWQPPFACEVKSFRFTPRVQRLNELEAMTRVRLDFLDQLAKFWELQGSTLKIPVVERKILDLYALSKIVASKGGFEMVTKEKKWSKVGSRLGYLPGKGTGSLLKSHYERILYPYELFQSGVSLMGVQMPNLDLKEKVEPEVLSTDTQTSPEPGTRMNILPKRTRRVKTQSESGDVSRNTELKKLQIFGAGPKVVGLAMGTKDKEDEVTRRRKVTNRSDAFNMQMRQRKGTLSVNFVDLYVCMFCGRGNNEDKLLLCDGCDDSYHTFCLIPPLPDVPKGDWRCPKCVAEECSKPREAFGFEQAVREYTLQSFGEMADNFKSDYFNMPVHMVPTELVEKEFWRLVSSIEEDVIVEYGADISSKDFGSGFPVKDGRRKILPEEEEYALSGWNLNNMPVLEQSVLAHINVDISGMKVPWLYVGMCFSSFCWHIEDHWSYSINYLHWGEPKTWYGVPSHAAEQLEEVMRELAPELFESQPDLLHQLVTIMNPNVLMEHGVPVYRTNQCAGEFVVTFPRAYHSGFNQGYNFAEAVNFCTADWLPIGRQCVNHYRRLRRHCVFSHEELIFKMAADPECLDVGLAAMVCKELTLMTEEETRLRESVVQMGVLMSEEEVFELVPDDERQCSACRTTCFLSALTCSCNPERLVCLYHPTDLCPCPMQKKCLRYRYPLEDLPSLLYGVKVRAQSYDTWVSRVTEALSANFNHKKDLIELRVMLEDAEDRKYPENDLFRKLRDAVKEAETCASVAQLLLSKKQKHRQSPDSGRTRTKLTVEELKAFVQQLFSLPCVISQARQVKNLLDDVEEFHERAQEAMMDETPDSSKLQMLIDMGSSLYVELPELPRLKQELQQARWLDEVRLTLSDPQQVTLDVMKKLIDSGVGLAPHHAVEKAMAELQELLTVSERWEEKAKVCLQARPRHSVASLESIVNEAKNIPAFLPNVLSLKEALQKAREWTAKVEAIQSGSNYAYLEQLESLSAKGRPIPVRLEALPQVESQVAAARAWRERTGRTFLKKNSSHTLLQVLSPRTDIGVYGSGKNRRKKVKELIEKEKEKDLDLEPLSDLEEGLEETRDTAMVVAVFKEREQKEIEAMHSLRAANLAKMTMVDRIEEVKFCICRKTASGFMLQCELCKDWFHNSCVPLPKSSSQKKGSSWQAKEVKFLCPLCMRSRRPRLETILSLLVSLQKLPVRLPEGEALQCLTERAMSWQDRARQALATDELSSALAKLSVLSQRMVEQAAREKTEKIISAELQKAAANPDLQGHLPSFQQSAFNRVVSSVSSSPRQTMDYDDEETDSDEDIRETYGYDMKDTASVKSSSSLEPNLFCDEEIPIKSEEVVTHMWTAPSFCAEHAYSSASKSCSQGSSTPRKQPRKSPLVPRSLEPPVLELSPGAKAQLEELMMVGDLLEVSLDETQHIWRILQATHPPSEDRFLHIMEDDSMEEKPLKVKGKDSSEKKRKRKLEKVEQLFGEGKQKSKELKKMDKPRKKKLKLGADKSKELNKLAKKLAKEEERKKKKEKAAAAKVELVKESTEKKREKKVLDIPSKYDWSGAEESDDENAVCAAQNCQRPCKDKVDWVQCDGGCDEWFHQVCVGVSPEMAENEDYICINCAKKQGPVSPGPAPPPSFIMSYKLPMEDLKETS

| IC50 [1] | IC50 [2] | IC50 [3] | IC50 [4] | IC50 [5] | Compound | further results |
| --- | --- | --- | --- | --- | --- | --- |
| 100 nM | < 100 nM | < 100 nM |  |  | O=C(O)c1ccnc2cc(OCc3ccc(Cl)c(OCC4CC4)c3)[nH]c12 | IC50 [8]: 1000 nM |
| 100 nM | < 100 nM | < 100 nM |  |  | O=C(O)c1ccnc2cc(OCc3ccc(Cl)c(OC(F)(F)F)c3)[nH]c12 | IC50 [8]: 100 nM |
| < 100 nM | 100 nM | < 100 nM | < 100 nM | < 100 nM | Cc1cc(Cl)ccc1COc1ccnn1-c1cc(C(=O)O)ccn1 | IC50 [6]: 100 nM |
| 1000 nM | < 100 nM | 1000 nM |  |  | COc1cc(COc2cc3nccc(C(=O)O)c3[nH]2)ccc1Cl | IC50 [8]: 100 nM |
| < 100 nM | < 100 nM | < 100 nM | 100 nM | 100 nM | O=C(O)c1ccnc(-n2nccc2OCc2ccc(Cl)cc2)c1 |  |

Further lines, the compound ahead of its results:

| Compound | IC50 [1] | IC50 [2] | IC50 [3] | IC50 [4] | IC50 [5] | further results |
| --- | --- | --- | --- | --- | --- | --- |
| COc1ccc(-c2c(-c3cc(C(=O)O)ccn3)ncn2C)cc1 | 100 nM | 1000 nM | 100 nM | 1000 nM | 1000 nM | IC50 [6]: 100 nM |
| CNC(=O)c1ccnc2cc(OCc3ccc(Cl)c(OC(F)(F)F)c3)[nH]c12 |  |  |  |  |  | IC50 (cells): < 100 nM |
| COC1(CN[C@@H]2C[C@H]2c2ccccc2)CCN(S(=O)(=O)c2ccn(C)n2)CC1 |  |  |  |  |  | IC50 [7]: < 100 nM |
| Cn1cnc(-c2cc(C(=O)O)ccn2)c1 | < 100 nM | < 100 nM | < 100 nM | > 10000 nM | > 10000 nM | IC50 [8]: < 100 nM; IC50 [6]: < 100 nM |
| O=C(O)c1cnnc(CNCC(=O)N2CCCCC2)c1 |  |  |  |  |  | IC50 [9]: < 250 nM; IC50 [10]: > 2500 nM; IC50 [11]: < 250 nM |
| Cn1cnc(-c2cc(-c3nn[nH]n3)ccn2)c1 | 100 nM | > 10000 nM | 100 nM | > 10000 nM | > 10000 nM | IC50 [8]: > 10000 nM; IC50 [6]: < 100 nM |
| CCN1CCC[C@H](CNCc2cc(C(=O)O)ccn2)C1=O |  |  |  |  |  | IC50 [9]: < 250 nM; IC50 [10]: > 2500 nM; IC50 [12]: < 250 nM |
| CC(C)Cn1nc(Nc2cnccc2C(=O)NC#N)c2cc(F)ccc21 | < 100 nM | 1000 nM | < 100 nM |  |  |  |
| O=C(O)c1ccnc(-n2ncc(CCO)c2OCc2ccc(F)cc2)c1 | < 100 nM | 1000 nM | < 100 nM |  |  |  |
| O=C(O)c1ccncc1Nc1nn(C2CCCC2)c2ccc(F)cc12 | < 100 nM | 100 nM | < 100 nM | 100 nM | 100 nM |  |
| O=C(O)c1ccncc1NCC12CC3CC(CC(C3)C1)C2 | 100 nM | < 100 nM | 100 nM |  |  | IC50 (cells): > 10000 nM |
| O=C(O)c1ccnc(CNCc2nccn2C/C=C/c2ccccc2)c1 |  |  |  |  |  | IC50 [9]: < 250 nM; IC50 [10]: > 2500 nM; IC50 [11]: > 2500 nM |
| COC(=O)c1ccnc2cc(OCc3ccc(Cl)c(OC)c3)[nH]c12 |  |  |  |  |  | IC50 (cells): < 100 nM |
| COC(=O)c1ccnc2cc(OCc3ccc(Cl)c(OC(F)(F)F)c3)[nH]c12 |  |  |  |  |  | IC50 (cells): < 100 nM |
| COC(=O)c1ccnc2cc(OCc3ccc(Cl)c(OCC4CC4)c3)[nH]c12 |  |  |  |  |  | IC50 (cells): < 100 nM |
| O=C(O)CC1(N2CCC(N[C@@H]3C[C@H]3c3ccccc3)CC2)CN(CCC(F)(F)F)C1 |  |  |  |  |  | IC50 [7]: < 100 nM |
| COC(=O)c1ccnc(-n2nccc2OCc2ccc(Cl)cc2)c1 |  |  |  | 100 nM | 100 nM |  |
| Cn1nc(Nc2cnccc2C(=O)O)c2cccnc21 | < 100 nM | 100 nM | < 100 nM | 100 nM | 100 nM |  |
| Cn1cnc(-c2cc(C(=O)O)ccn2)c1-c1ccc(OCC2CC2)cc1 | < 100 nM | 100 nM | < 100 nM | 1000 nM | 1000 nM | IC50 [6]: 100 nM |
| CN(C)CC(=O)N1CCC(CN[C@@H]2C[C@H]2c2ccccc2)(Cc2cccc(C#N)c2)CC1 |  |  |  |  |  | IC50 [7]: < 100 nM |
| Nc1ccnc(N2CCC(N[C@@H]3C[C@H]3c3ccccc3)CC2)n1 |  |  |  |  |  | IC50 [7]: < 100 nM |
